Measurements from BindingDB's records for doi:10.1016/s0960-894x(99)00332-7 (Warner-Lambert, 1999).

What was measured:
[1] = target: T1, Human immunodeficiency virus type 1 protease (Human immunodeficiency virus 1, UniProt Q72874); test: Inhibitory activity was evaluated against human immunodeficiency virus type 1(HIV-1) protease at pH 6.2
[2] = target: T1, Human immunodeficiency virus type 1 protease; test: ChEBML_79977; conditions: pH 4.7
Description: Inhibitory activity was evaluated against human immunodeficiency virus type 1(HIV-1) protease at pH 4.7

IC50 [1] [nM] | IC50 [2] [nM] | SMILES
211 |  | CC(C)(C)c1oc2ccccc2c1SC1C(=O)CC(CCc2ccccc2)(c2ccccc2)OC1=O (centres undefined) [3-(2-tert-Butyl-benzofuran-3-ylsulfanyl)-4-hydroxy-6-phenethyl-6-phenyl-5,6-dihydro-pyran-2-one]
 | 28 | CCc1c(SC2C(=O)CC(CCc3ccccc3)(c3ccccc3)OC2=O)sc2ccccc12 (centres undefined) [3-(3-Ethyl-benzo[b]thiophen-2-ylsulfanyl)-4-hydroxy-6-phenethyl-6-phenyl-5,6-dihydro-pyran-2-one]
130 |  | CC(C)(C)c1cc2c(cc1SC1C(=O)CC(CCc3ccccc3)(c3ccccc3)OC1=O)CCC2 (centres undefined) [3-(6-tert-Butyl-indan-5-ylsulfanyl)-4-hydroxy-6-phenethyl-6-phenyl-5,6-dihydro-pyran-2-one]
 | 28 | CC(C)(C)c1cc2c(cc1SC1C(=O)CC(CCc3ccccc3)(c3ccccc3)OC1=O)CCCC2 (centres undefined) [3-(3-tert-Butyl-5,6,7,8-tetrahydro-naphthalen-2-ylsulfanyl)-4-hydroxy-6-phenethyl-6-phenyl-5,6-dihydro-pyran-2-one]
